Experimental data as given in US11660293B2, “Substituted 2-azabicyclo[3.1.1]heptane and 2-azabicyclo[3.2.1]octane derivatives as orexin receptor antagonists” (Chronos Therapeutics Limited, priority 2017, dated 2023).

Experiments:
[1] = target: human Orexin type 1 receptors (Homo sapiens (Human), UniProt O43613); test: Scintillation Proximity Assay (SPA) binding assay, [3H]SB-674042 displacement, CHO-hOX1 membranes; conditions: Table 2, [3H]SB-674042 2 nM
[2] = target: human Orexin type 2 receptors (Homo sapiens (Human), UniProt O43614); test: Scintillation Proximity Assay (SPA) binding assay, [3H]EMPA displacement, HEK-hOX2 membranes; conditions: Table 2, [3H]EMPA 2 nM
Chain of human Orexin type 2 receptors (O43614 whole entry): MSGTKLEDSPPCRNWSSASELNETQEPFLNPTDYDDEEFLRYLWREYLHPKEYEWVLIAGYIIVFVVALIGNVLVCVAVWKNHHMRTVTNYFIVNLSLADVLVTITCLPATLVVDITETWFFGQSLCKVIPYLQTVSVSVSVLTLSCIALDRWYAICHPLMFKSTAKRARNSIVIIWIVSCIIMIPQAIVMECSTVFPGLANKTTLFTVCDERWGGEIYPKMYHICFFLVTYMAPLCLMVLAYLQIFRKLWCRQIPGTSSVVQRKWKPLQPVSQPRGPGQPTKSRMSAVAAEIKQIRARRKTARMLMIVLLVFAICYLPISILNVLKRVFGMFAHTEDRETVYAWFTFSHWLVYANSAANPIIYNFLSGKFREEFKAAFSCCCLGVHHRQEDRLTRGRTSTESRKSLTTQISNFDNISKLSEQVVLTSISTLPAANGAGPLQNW

Chain of human Orexin type 1 receptors (O43613 whole entry): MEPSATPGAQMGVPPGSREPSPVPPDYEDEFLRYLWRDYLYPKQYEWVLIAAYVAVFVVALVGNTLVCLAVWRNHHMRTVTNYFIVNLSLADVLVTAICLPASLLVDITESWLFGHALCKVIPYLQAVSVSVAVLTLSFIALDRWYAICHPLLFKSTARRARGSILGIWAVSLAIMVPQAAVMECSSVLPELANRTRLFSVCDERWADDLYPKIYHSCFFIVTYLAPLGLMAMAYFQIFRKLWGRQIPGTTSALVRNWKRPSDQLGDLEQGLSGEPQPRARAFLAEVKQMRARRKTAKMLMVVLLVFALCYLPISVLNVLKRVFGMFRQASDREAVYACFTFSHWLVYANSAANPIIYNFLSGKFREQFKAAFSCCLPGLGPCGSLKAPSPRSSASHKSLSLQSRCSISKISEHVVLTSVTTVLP

Cc1ccc(-n2nccn2)c(C(=O)N2C3CC(C3)[C@@H](C)C2CNc2ncc(C(F)(F)F)cn2)n1 (single isomer, unassigned) [Example 194, N-{[(3S,4R) or (3R,4S)-4-methyl-2-[6-methyl-3-(2H-1,2,3-triazol-2-yl)pyridine-2-carbonyl]-2-azabicyclo[3.1.1]heptan-3-yl]methyl}-5-(trifluoromethyl)pyrimidin-2-amine] was tested, and the “OX1 pKi (SPA binding)” value [1] was 7.51 and the “OX2 pKi (SPA binding)” value [2] was 4.66.

Cc1ccc(-n2nccn2)c(C(=O)N2C3CC(C3)[C@@H](C)C2CNc2cnc3cc(F)ccc3n2)n1 (single isomer, unassigned) [Example 200, 6-fluoro-N-{[(3R,4S) or (3S,4R)-4-methyl-2-[6-methyl-3-(2H-1,2,3-triazol-2-yl)pyridine-2-carbonyl]-2-azabicyclo[3.1.1]heptan-3-yl]methyl}quinoxalin-2-amine] was tested, and the “OX1 pKi (SPA binding)” value [1] was 8.24 and the “OX2 pKi (SPA binding)” value [2] was 6.37.

For C[C@@H]1C2CC(C2)N(C(=O)c2cc(Cl)ccc2-n2nccn2)C1CNc1cnc2cc(F)ccc2n1 (single isomer, unassigned) [Example 209, N-{[(3R,4R) or (3S,4R)-2-[5-chloro-2-(2H-1,2,3-triazol-2-yl)benzoyl]-4-methyl-2-azabicyclo[3.1.1]heptan-3-yl]methyl}-6-fluoroquinoxalin-2-amine], the “OX1 pKi (SPA binding)” value [1] was 8.74 and the “OX2 pKi (SPA binding)” value [2] was 6.8.

C[C@@H]1C2CC(C2)N(C(=O)c2nn(C)cc2-c2ccccc2)C1CNc1ccc(C(F)(F)F)cn1 (single isomer, unassigned) [Example 211, N-{[(3S,4R) or (3R,4R)-4-methyl-2-(1-methyl-4-phenyl-1H-pyrazole-3-carbonyl)-2-azabicyclo[3.1.1]heptan-3-yl]methyl}-5-(trifluoromethyl)pyridin-2-amine] was tested, and the “OX1 pKi (SPA binding)” value [1] was 8.91 and the “OX2 pKi (SPA binding)” value [2] was 6.25.

With Cc1ccc(-n2nccn2)c(C(=O)N2C3CC(C3)[C@@H](C)C2CNc2nc3ccc(F)cc3o2)n1 (single isomer, unassigned) [Example 219, 6-fluoro-N-{[(3S,4R) or (3R,4S)-4-methyl-2-[6-methyl-3-(2H-1,2,3-triazol-2-yl)pyridine-2-carbonyl]-2-azabicyclo[3.1.1]heptan-3-yl]methyl}-1,3-benzoxazol-2-amine] the “OX1 pKi (SPA binding)” value [1] was 8.71 and the “OX2 pKi (SPA binding)” value [2] was 5.79.

With Cc1ccc(-n2nccn2)c(C(=O)N2C3CC(C3)[C@@H](C)C2CNc2nc3ccccc3o2)n1 (single isomer, unassigned) [Example 226, N-{[(3S,4R) or (3R,3S)-4-methyl-2-[6-methyl-3-(2H-1,2,3-triazol-2-yl)pyridine-2-carbonyl]-2-azabicyclo[3.1.1]heptan-3-yl]methyl}-1,3-benzoxazol-2-amine] the “OX1 pKi (SPA binding)” value [1] was 8.46 and the “OX2 pKi (SPA binding)” value [2] was 5.39.

With Cc1ccc(-n2nccn2)c(C(=O)N2C3CC(C3)[C@@H](C)C2CNc2nc3ccccc3o2)n1 (single isomer, unassigned) [Example 227, N-{[(3R,4S) or (3S,4R)-4-methyl-2-[6-methyl-3-(2H-1,2,3-triazol-2-yl)pyridine-2-carbonyl]-2-azabicyclo[3.1.1]heptan-3-yl]methyl}-1,3-benzoxazol-2-amine] the “OX1 pKi (SPA binding)” value [1] was 7.11 and the “OX2 pKi (SPA binding)” value [2] was 4.9.

For C[C@@H]1C2CC(C2)N(C(=O)c2cc(Cl)ccc2-n2nccn2)C1CNc1nc2cccnc2s1 (single isomer, unassigned) [Example 236, N-{[(3R,4S) or (3S,4R)-2-[5-chloro-2-(2H-1,2,3-triazol-2-yl)benzoyl]-4-methyl-2-azabicyclo[3.1.1]heptan-3-yl]methyl}-[1,3]thiazolo[5,4-b]pyridin-2-amine], the “OX1 pKi (SPA binding)” value [1] was 8.99 and the “OX2 pKi (SPA binding)” value [2] was 5.7.
